In US20130158075A1, “HETEROCYCLIC COMPOUNDS AS DGAT1 INHIBITORS” (PIRAMAL ENTERPRISES LIMITED, priority 2010, published 2013):
Structures can show the parent of a compound that is named as a salt.

Biological target: T1, hDGAT1 (Homo sapiens, UniProt O75907)
T1 construct: made in house; host or cells: Sf9 insect cells (baculovirus); microsomal fraction
T1 sequence (O75907 1-488): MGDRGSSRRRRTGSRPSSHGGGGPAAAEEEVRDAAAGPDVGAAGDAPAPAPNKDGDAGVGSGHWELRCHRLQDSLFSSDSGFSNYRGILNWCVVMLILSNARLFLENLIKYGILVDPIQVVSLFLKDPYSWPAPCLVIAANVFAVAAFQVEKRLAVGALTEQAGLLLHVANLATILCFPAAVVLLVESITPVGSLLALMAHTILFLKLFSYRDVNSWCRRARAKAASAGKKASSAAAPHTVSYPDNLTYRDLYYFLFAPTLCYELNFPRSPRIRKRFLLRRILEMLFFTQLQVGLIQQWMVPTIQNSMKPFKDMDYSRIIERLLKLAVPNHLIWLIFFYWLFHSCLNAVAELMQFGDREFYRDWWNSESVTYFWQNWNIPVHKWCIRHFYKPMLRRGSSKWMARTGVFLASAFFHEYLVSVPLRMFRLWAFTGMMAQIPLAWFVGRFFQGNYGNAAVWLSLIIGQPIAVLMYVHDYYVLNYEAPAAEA
Assay: In-vitro DGAT1 assay with hDGAT1 microsomes from Sf9 cells (14C oleoyl CoA, scintillation counting)
Assay type: biochemical
Settings: at 1 μM
Procedure, shortened: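 Radiolabelled triglyceride formation was measured: heptane extracts were scintillation-counted after a 10-min, 37 °C reaction stopped with alkaline ethanol. Enzyme was human DGAT1 in baculovirus-infected Sf9 microsomal membranes; substrates were 14C oleoyl-CoA plus dioleoylglycerol. Runs were duplicated, and inhibition (%) was related to nM compound concentration.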

| Structure (SMILES) | Percentage inhibition of hDGAT1 |
| --- | --- |
| O=C(Nc1ccc(-c2cnc(CCNS(=O)(=O)C(F)(F)F)s2)cc1)Nc1ccc(C(F)(F)F)cc1 [Example 526] | ++ (>50 % Inhibition) |
| O=C(Nc1ccc(-c2cnc(CCNS(=O)(=O)C(F)(F)F)s2)cc1)NC1CCCCC1 [Example 528, N-(2-(5-(4-(3-Cyclohexylureido)phenyl)thiazol-2-yl)ethyl)-1,1,1-trifluoro methanesulfonamide] | ++ (>50 % Inhibition) |
| O=C(Nc1ccc(-c2cnc(CNS(=O)(=O)C(F)(F)F)s2)cc1)Nc1ccccc1Cl [Example 543, N-((5-(4-(3-(2-Chlorophenyl)ureido)phenyl)thiazol-2-yl)methyl)-1,1,1-trifluoro methanesulfonamide] | ++ (>50 % Inhibition) |
| O=C(Nc1ccc(-c2cnc(CNS(=O)(=O)C(F)(F)F)s2)cc1)NC1CCCCC1 [Example 548, N-((5-(4-(3-Cyclohexylureido)phenyl)thiazol-2-yl)methyl)-1,1,1-trifluoro methanesulfonamide] | ++ (>50 % Inhibition) |
| O=C(Nc1ccc(-c2cnc(CNS(=O)(=O)C(F)(F)F)s2)cc1)c1ccccc1Cl [Example 551] | + (20-50% Inhibition) |

Same assay, conditions: read-out: Percentage inhibition of hDGAT1

| Structure (SMILES) | inhibition at 1 µM |
| --- | --- |
| O=C(Nc1ccccc1)Nc1ccc(-c2cnc(CCNS(=O)(=O)C(F)(F)F)s2)cc1 [Example 527, 1,1,1-Trifluoro-N-(2-(5-(4-(3-phenylureido)phenyl)thiazol-2-yl)ethyl)methane sulfonamide] | > 50% |
| O=C(Nc1ccc(-c2cnc(CCNS(=O)(=O)C(F)(F)F)s2)cc1)c1ccccc1Cl [Example 529, 2-Chloro-N-(4-(2-(2-(trifluoromethylsulfonamido)ethyl)thiazol-5-yl)phenyl)benzamide] | 20 to 50% |
| O=C(Nc1ccc(-c2cnc(CCNS(=O)(=O)C(F)(F)F)s2)cc1)c1nc(-c2ccccc2)oc1C(F)(F)F [Example 533, 2-Phenyl-5-(trifluoromethyl)-N-(4-(2-(2-(trifluoromethylsulfonamido)ethyl)thiazol-5-yl)phenyl)oxazole-4-carboxamide] | > 50% |
| N#CN=C(Nc1ccc(-c2cnc(CCNS(=O)(=O)C(F)(F)F)s2)cc1)Nc1ccccc1F [Example 537, N-(2-(5-(4-(2-Cyano-3-(2-fluorophenyl)guanidino)phenyl)thiazol-2-yl)ethyl)-1,1,1-trifluoromethanesulfonamide] | > 50% |
| O=C(Nc1ccc(-c2cnc(CNS(=O)(=O)C(F)(F)F)s2)cc1)Nc1ccccc1F [Example 544, 1,1,1-Trifluoro-N-((5-(4-(3-(2-fluorophenyl)ureido)phenyl)thiazol-2-yl)methyl)methanesulfonamide] | > 50% |
| O=C(Nc1ccc(-c2cnc(CNS(=O)(=O)C(F)(F)F)s2)cc1)Nc1cc(F)cc(F)c1 [Example 545, N-((5-(4-(3-(3,5-Difluorophenyl)ureido)phenyl)thiazol-2-yl)methyl)-1,1,1-trifluoromethanesulfonamide] | > 50% |
| O=C(Nc1ccc(-c2cnc(CNS(=O)(=O)C(F)(F)F)s2)cc1)Nc1cc(F)c(F)cc1F [Example 546, 1,1,1-Trifluoro-N-((5-(4-(3-(2,4,5-trifluorophenyl)ureido)phenyl)thiazol-2-yl)methyl)methanesulfonamide] | > 50% |
| O=C(Nc1ccc(-c2cnc(CNS(=O)(=O)C(F)(F)F)s2)cc1)Nc1c(F)cc(F)cc1F [Example 547, 1,1,1-Trifluoro-N-((5-(4-(3-(2,4,6-trifluorophenyl)ureido)phenyl)thiazol-2-yl)methyl)methanesulfonamide] | > 50% |
| O=C(Nc1ccc(-c2cnc(CNS(=O)(=O)C(F)(F)F)s2)cc1)Nc1ccc(C(F)(F)F)cc1 [Example 549, 1,1,1-Trifluoro-N-((5-(4-(3-(4-(trifluoromethyl)phenyl)ureido)phenyl)thiazol-2-yl)methyl)methanesulfonamide] | > 50% |
| O=C(Nc1ccccc1)Nc1ccc(-c2cnc(CNS(=O)(=O)C(F)(F)F)s2)cc1 [Example 550, 1,1,1-Trifluoro-N-((5-(4-(3-phenylureido)phenyl)thiazol-2-yl)methyl)methane sulfonamide] | > 50% |
| O=C(Nc1ccc(-c2cnc(CNS(=O)(=O)C(F)(F)F)s2)cc1)c1ccc(C(F)(F)F)cc1 [Example 552, 4-(Trifluoromethyl)-N-(4-(2-((trifluoromethylsulfonamido)methyl)thiazol-5-yl)phenyl)benzamide] | > 50% |
| O=S(=O)(Nc1ccc(-c2cnc(CNS(=O)(=O)C(F)(F)F)s2)cc1)c1ccccc1 [Example 553, N-(4-(2-((Trifluoromethylsulfonamido)methyl)thiazol-5-yl)phenyl)benzene sulfonamide] | 20 to 50% |
| CC(C)(NS(=O)(=O)C(F)(F)F)c1ncc(-c2ccc(NC(=O)Nc3ccccc3Cl)cc2)s1 [Example 562, N-(2-(5-(4-(3-(2-Chlorophenyl)ureido)phenyl)thiazol-2-yl)propan-2-yl)-1,1,1-trifluoromethanesulfonamide] | > 50% |
| CC(C)(NS(=O)(=O)C(F)(F)F)c1ncc(-c2ccc(NC(=O)Nc3ccccc3F)cc2)s1 [Example 563, 1,1,1-Trifluoro-N-(2-(5-(4-(3-(2-fluorophenyl)ureido)phenyl)thiazol-2-yl)propan-2-yl)methanesulfonamide] | > 50% |
| CC(C)(NS(=O)(=O)C(F)(F)F)c1ncc(-c2ccc(NC(=O)Nc3cc(F)cc(F)c3)cc2)s1 [Example 564, N-(2-(5-(4-(3-(3,5-Difluorophenyl)ureido)phenyl)thiazol-2-yl)propan-2-yl)-1,1,1-trifluoromethanesulfonamide] | > 50% |
| CC(C)(NS(=O)(=O)C(F)(F)F)c1ncc(-c2ccc(NC(=O)Nc3cc(F)c(F)cc3F)cc2)s1 [Example 565, 1,1,1-Trifluoro-N-(2-(5-(4-(3-(2,4,5-trifluorophenyl)ureido)phenyl)thiazol-2-yl)propan-2-yl)methanesulfonamide] | > 50% |
| CC(C)(NS(=O)(=O)C(F)(F)F)c1ncc(-c2ccc(NC(=O)Nc3c(F)cc(F)cc3F)cc2)s1 [Example 566, 1,1,1-Trifluoro-N-(2-(5-(4-(3-(2,4,6-trifluorophenyl)ureido)phenyl)thiazol-2-yl)propan-2-yl)methanesulfonamide] | 20 to 50% |
| CC(C)(NS(=O)(=O)C(F)(F)F)c1ncc(-c2ccc(NC(=O)NC3CCCCC3)cc2)s1 [Example 567, N-(2-(5-(4-(3-Cyclohexylureido)phenyl)thiazol-2-yl)propan-2-yl)-1,1,1-trifluoromethanesulfonamide] | > 50% |
| CC(C)(NS(=O)(=O)C(F)(F)F)c1ncc(-c2ccc(NS(=O)(=O)c3ccccc3)cc2)s1 [Example 568, N-(4-(2-(2-(Trifluoromethylsulfonamido)propan-2-yl)thiazol-5-yl)phenyl)benzenesulfonamide] | 20 to 50% |
| NCCc1ncc(-c2ccc(NC(=O)Nc3cc(F)cc(F)c3)cc2)s1 [Example 574, 1-(4-(2-(2-Aminoethyl)thiazol-5-yl)phenyl)-3-(3,5-difluorophenyl)urea hydrochloride] | 20 to 50% |
| NCCc1ncc(-c2ccc(NC(=O)Nc3cc(F)c(F)cc3F)cc2)s1 [Example 575, 1-(4-(2-(2-Aminoethyl)thiazol-5-yl)phenyl)-3-(2,4,5-trifluorophenyl)urea hydrochloride] | 20 to 50% |
| CC(C)(CCc1ncc(-c2ccc(NC(=O)Nc3ccccc3Cl)cc2)s1)C(=O)NS(=O)(=O)C(F)(F)F [Example 579, 4-(5-(4-(3-(2-Chlorophenyl)ureido)phenyl)thiazol-2-yl)-2,2-dimethyl-N-((trifluoromethyl)sulfonyl)butanamide] | > 50% |
| CC(C)(CCc1ncc(-c2ccc(NC(=O)Nc3ccccc3F)cc2)s1)C(=O)NS(=O)(=O)C(F)(F)F [Example 580, 4-(5-(4-(3-(2-Fluorophenyl)ureido)phenyl)thiazol-2-yl)-2,2-dimethyl-N-((trifluoromethyl)sulfonyl)butanamide] | > 50% |
| CC(C)(CCc1ncc(-c2ccc(NC(=O)Nc3cc(F)cc(F)c3)cc2)s1)C(=O)NS(=O)(=O)C(F)(F)F [Example 581, 4-(5-(4-(3-(3,5-Difluorophenyl)ureido)phenyl)thiazol-2-yl)-2,2-dimethyl-N-((trifluoromethyl)sulfonyl)butanamide] | > 50% |
| CC(C)(CCc1ncc(-c2ccc(NC(=O)Nc3cc(F)c(F)cc3F)cc2)s1)C(=O)NS(=O)(=O)C(F)(F)F [Example 582, 2,2-Dimethyl-N-((trifluoromethyl)sulfonyl)-4-(5-(4-(3-(2,4,5-trifluorophenyl)ureido)phenyl)thiazol-2-yl)butanamide] | > 50% |
| O=C(Nc1ccc(-c2cnc(C3CCC(C(=O)O)CC3)s2)cc1)Nc1cc(F)c(F)cc1F (centres unmarked) [Example 584, 4-(5-(4-(3-(2,4,5-Trifluorophenyl)ureido)phenyl)thiazol-2-yl)cyclohexane carboxylic acid] | > 50% |
| CC(C)(O)C1CCC(c2ncc(-c3ccc(NC(=O)Nc4cc(F)c(F)cc4F)cc3)s2)CC1 (centres unmarked) [Example 585, 1-(4-(2-(4-(2-Hydroxypropan-2-yl)cyclohexyl)thiazol-5-yl)phenyl)-3-(2,4,5-trifluorophenyl)urea] | > 50% |
